pIC50, pKi: −log10 of the molar value. Like-named read-outs stand apart in the source and are kept apart here.
Key:
[1] = target: T1, purified catalytic domain of recombinant human TACE (rhTACEc) (Homo sapiens, UniProt P78536, N452Q/S266A); experiment: TACE kinetic assay: cleavage of internally quenched peptide substrate TNF-FRET 2 (Ki); type: biochemical; conditions: TNF-FRET 2 substrate
T1 construct: 6xHis (C); made in house; host or cells: baculovirus/Hi5 insect cells

[2] = system: TNF-α production from human whole blood; experiment: Inhibition of TNF-α production from human whole blood (hWBA), LPS stimulated, ELISA; type: cell-based; conditions: TNF-α by ELISA, read-out: hWBA (IC50)
[3] = Area under the curve determinations of plasma levels in rats (rrAUC), oral 10 mg/kg; type: in vivo; conditions: for AUC: rat, read-out: RR AUC (rapid rat AUC, rrAUC)
[4] = Homo sapiens, human whole blood diluted 1:1, LPS stimulated
[5] = plasma, blood collected 0.5-6 h post-dosing
[6] = Homo sapiens, LPS-stimulated human whole blood
[7] = Homo sapiens, 3.5 h, human whole blood diluted 1:1, LPS stimulated, 3.5 h

T1 sequence (P78536 215-477 S266A/N452Q): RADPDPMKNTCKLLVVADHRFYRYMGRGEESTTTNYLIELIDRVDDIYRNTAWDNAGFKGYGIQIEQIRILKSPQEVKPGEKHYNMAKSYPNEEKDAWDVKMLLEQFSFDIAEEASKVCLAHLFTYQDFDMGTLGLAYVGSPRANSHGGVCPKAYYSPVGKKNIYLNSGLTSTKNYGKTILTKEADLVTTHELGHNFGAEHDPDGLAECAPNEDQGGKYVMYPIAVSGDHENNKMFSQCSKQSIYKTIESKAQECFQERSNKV

Row | Compound | pKi ([1]; read-out: Ki) | pIC50 [2, 7] | AUC ([3]; plasma 0.5-6 h post-dosing) [µM·h] | other results
1 | COc1ccc2c(c1)C(=O)N(C[C@@]1(c3cc4cnc(C)nc4o3)NC(=O)NC1=O)C2 [Compound 2309] | 9.23 | – | – | pIC50 [2, 4]: 6.20; AUC [3, 5]: 18 µM·h
2 | CCC1(c2cc(F)c3oc([C@]4(CN5Cc6ccc(OC)c(F)c6C5=O)NC(=O)NC4=O)cc3c2)NC(=O)NC1=O (stereo partly drawn) [Compound 1305] | 9.11 | – | – | pIC50 [2, 6]: 6.62; AUC ([3]; plasma 0.5-6 h): 1.87 µM·h
3 | CCN1CCN(c2ccc3oc([C@]4(CN5Cc6ccc(OC)c(F)c6C5=O)NC(=O)NC4=O)cc3n2)CC1 [Compound 1705] | 9.09 | – | – | pIC50 [2, 6]: 6.86; AUC ([3]; plasma 0.5-6 h): 1.2 µM·h
4 | COc1ccc2c(c1)C(=O)N(C[C@@]1(c3cc4cnc(-c5cccc(C#N)c5)cc4o3)NC(=O)NC1=O)C2 [Compound 2431] | 9.10 | – | – | pIC50 ([2]; human whole blood diluted 1:1, LPS stimulated): 5.07; RR AUC (rapid rat AUC, rrAUC) ([3]; blood collected 0.5-6 h post-dosing): 10.648 µM·h
5 | COc1ccc2c(c1)C(=O)N(C[C@@]1(c3cc4nc(N5CCOCC5)ccc4o3)NC(=O)NC1=O)C2 [Compound 2163] | 9.25 | 5.95 | 3.64 | –
6 | COc1ccc2c(c1)C(=O)N(C[C@@]1(c3cc4cc(-c5cccnc5)ncc4o3)NC(=O)NC1=O)C2 [Compound 2239] | 9.17 | 6.14 | 9.84 | –
7 | CCCn1cc(-c2ccc3oc([C@]4(CN5Cc6ccc(OC)cc6C5=O)NC(=O)NC4=O)cc3n2)cn1 [Compound 2117] | 9.39 | 5.99 | 0.32 | –
8 | COc1ccc2c(c1F)C(=O)N(C[C@@]1(c3cc4ncccc4o3)NC(=O)NC1=O)C2 [Compound 2203] | 9.33 | 6.70 | 3.92 | –
9 | COc1ccc2c(c1)C(=O)N(C[C@@]1(c3cc4c(N5CCCC5=O)nccc4o3)NC(=O)NC1=O)C2 [Compound 2293] | 8.90 | – | – | pIC50 [2, 4]: 6.28; AUC [3, 5]: 0.219 µM·h
10 | COc1ccc2c(c1F)C(=O)N(C[C@@]1(c3cc4cc(F)cnc4o3)NC(=O)NC1=O)C2 [Compound 2277] | – | 6.30 | 26.2 | pKi ([1]; Ki): 9.30
11 | COc1ccc2c(c1F)C(=O)N(C[C@@]1(c3cc4nc(N5C[C@@H](O)CC5=O)ccc4o3)NC(=O)NC1=O)C2 [Compound 1501] | 9.30 | – | – | pIC50 [2, 6]: 6.88; AUC ([3]; plasma 0.5-6 h): 0.667 µM·h
12 | COc1ccc2c(c1F)C(=O)N(C[C@@]1(c3cc4nc(-n5ccnc5)ccc4o3)NC(=O)NC1=O)C2 [Compound 1523] | 9.22 | – | – | pIC50 [2, 6]: 6.54; AUC ([3]; plasma 0.5-6 h): 4.29 µM·h
13 | COc1ccc2c(c1F)C(=O)N(C[C@@]1(c3cc4cc(F)c5c(c4o3)CNC5=O)NC(=O)NC1=O)C2 [Compound 2501] | 9.07 | – | – | pIC50 [2, 4]: 6.83; AUC [3, 5]: 0.448 µM·h
14 | CCC1(c2cc(F)c3oc([C@]4(CN5Cc6ccc(OC)cc6C5=O)NC(=O)NC4=O)cc3c2)NC(=O)NC1=O (stereo partly drawn) [Compound 2210] | 9.50 | 6.64 | 0.018 | –
15 | COc1ccc2c(c1F)C(=O)N(C[C@@]1(c3cc4cnc(C)cc4o3)NC(=O)NC1=O)C2 [Compound 30] | 9.42 | 6.69 | 26.3 | –
16 | COc1ccc2c(c1F)C(=O)N(C[C@@]1(c3cc4nc(N5CCN(C)C5=O)c(F)cc4o3)NC(=O)NC1=O)C2 [Compound 1329] | 9.23 | – | – | pIC50 [2, 6]: 6.63; AUC ([3]; plasma 0.5-6 h): 0.226 µM·h
17 | COc1ccc2c(c1)C(=O)N(C[C@@]1(c3cc4cc(-n5cncn5)ccc4o3)NC(=O)NC1=O)C2 [Compound 2196] | 9.19 | 5.81 | 7.06 | –
18 | COc1ccc2c(c1)C(=O)N(C[C@@]1(c3cc4cc(NC(C)=O)cnc4o3)NC(=O)NC1=O)C2 [Compound 2295] | 8.88 | – | – | pIC50 [2, 4]: 6.65; AUC [3, 5]: 0.044 µM·h
19 | COc1ccc2c(c1F)C(=O)N(C[C@@]1(c3cc4cc(-c5cn[nH]c5)c(F)cc4o3)NC(=O)NC1=O)C2 [Compound 1187] | 9.64 | 6.54 | 1.07 | –
20 | COc1ccc2c(c1)C(=O)N(C[C@@]1(c3cc4nc(NC(=O)c5ccncc5)ccc4o3)NC(=O)NC1=O)C2 [Compound 2135] | 8.92 | 5.56 | 0.56 | –
21 | COc1ccc2c(c1)C(=O)N(C[C@@]1(c3cc4nc(-c5cncnc5)ccc4o3)NC(=O)NC1=O)C2 [Compound 2147] | 9.52 | 5.97 | 2.19 | –
22 | COc1ccc2c(c1F)C(=O)N(C[C@@]1(c3cc4cc5c(c(C)c4o3)C(=O)NC5)NC(=O)NC1=O)C2 [Compound 2497] | 9.54 | – | – | pIC50 [2, 4]: 6.17; AUC [3, 5]: 1.05 µM·h
23 | COc1ccc2c(c1)C(=O)N(C[C@@]1(c3cc4nc(Nc5ccnn5C)ccc4o3)NC(=O)NC1=O)C2 [Compound 2131] | 9.38 | 6.20 | 0.257 | –
24 | COc1ccc2c(c1)C(=O)N(C[C@@]1(c3cc4cc(-c5ccccc5O)ncc4o3)NC(=O)NC1=O)C2 [Compound 2241] | 8.92 | ≤ 5.00 | 1.39 | –

Row | Compound | pKi ([1]; read-out: Ki) | pIC50 [2, 7] | AUC ([3]; plasma 0.5-6 h post-dosing) [µM·h] | other results
25 | COc1ccc2c(c1)C(=O)N(C[C@@]1(c3cc4ccc(C(=O)N5CCNCC5)cc4o3)NC(=O)NC1=O)C2 [Compound 2424] | 9.01 | – | – | pIC50 [2, 4]: 6.15; AUC [3, 5]: 0.013 µM·h
26 | COc1ccc2c(c1F)C(=O)N(C[C@@]1(c3cc4nc(-c5c(C)nn(C)c5C)ccc4o3)NC(=O)NC1=O)C2 [Compound 2119] | 9.41 | 6.61 | 7 | –
27 | COc1ccc2c(c1)C(=O)N(C[C@@]1(c3cc4nc(N5C(=O)CCC5C)ccc4o3)NC(=O)NC1=O)C2 (stereo partly drawn) [Compound 2161] | 9.27 | 6.73 | 4.79 | –
28 | COc1ccc2c(c1F)C(=O)N(C[C@@]1(c3cc4nc(N5CCNC5=O)c(F)cc4o3)NC(=O)NC1=O)C2 [Compound 1331] | 9.18 | – | – | pIC50 [2, 6]: 6.51; AUC ([3]; plasma 0.5-6 h): 0.67 µM·h
29 | COc1ccc2c(c1)C(=O)N(C[C@@]1(c3cn4ccsc4n3)NC(=O)NC1=O)C2 [Compound 502C] | – | – | – | pKi ([1]; Ki): 8.90; pIC50 [2, 6]: 6.27; AUC ([3]; plasma 0.5-6 h): 2.22 µM·h
30 | COc1ccc2c(c1)C(=O)N(C[C@@]1(c3cc4nc(-n5nc(N)cc5C)ccc4o3)NC(=O)NC1=O)C2 [Compound 2118] | – | 5.42 | 0.527 | pKi ([1]; Ki): 9.22
31 | COc1ccc2c(c1)C(=O)N(C[C@@]1(c3cc4cnc(-c5cncnc5)cc4o3)NC(=O)NC1=O)C2 [Compound 2233] | 9.12 | 6.11 | 3.81 | –
32 | COc1ccc2c(c1F)C(=O)N(C[C@@]1(c3cc4nc(N5CCCNC5=O)ccc4o3)NC(=O)NC1=O)C2 [Compound 2146] | 9.01 | 6.30 | 0.522 | –
33 | COc1ccc2c(c1F)C(=O)N(C[C@@]1(c3cc4nc(C)c(F)cc4o3)NC(=O)NC1=O)C2 [Compound 1312] | 9.13 | – | – | pIC50 [2, 6]: 6.04; AUC ([3]; plasma 0.5-6 h): 38.3 µM·h
34 | COc1ccc2c(c1F)C(=O)N(C[C@@]1(c3cc4c5c(ccc4o3)C(=O)NC5)NC(=O)NC1=O)C2 [Compound 2506] | 9.49 | – | – | pIC50 [2, 4]: 6.81; AUC [3, 5]: 0.437 µM·h
35 | CCN1CCN(c2ccc3oc([C@]4(CN5Cc6ccc(OC)cc6C5=O)NC(=O)NC4=O)cc3n2)CC1 [Compound 2123] | 9.09 | 6.87 | 0.727 | –
36 | CNC(=O)c1ccc2oc([C@]3(CN4Cc5ccc(OC)cc5C4=O)NC(=O)NC3=O)cc2n1 [Compound 2462] | 9.07 | – | – | pIC50 [2, 4]: 6.55; AUC [3, 5]: 1.07 µM·h
37 | COc1ccc2c(c1F)C(=O)N(C[C@@]1(c3cc4cccnc4o3)NC(=O)NC1=O)C2 [Compound 2271] | 9.44 | 6.66 | 10.6 | –
38 | COc1ccc2c(c1)C(=O)N(C[C@@]1(c3cc4cc(-c5ccncc5)cnc4o3)NC(=O)NC1=O)C2 [Compound 2255] | 9.28 | 6.40 | 0.527 | –
39 | COCCN1CCc2oc([C@]3(CN4Cc5ccc(OC)cc5C4=O)NC(=O)NC3=O)cc2C1 [Compound 2267] | 8.28 | 5.98 | 0.278 | –
40 | COc1ccc2c(c1)C(=O)N(C[C@@]1(c3cc4nc(N5CC[C@H](O)C5=O)ccc4o3)NC(=O)NC1=O)C2 [Compound 2159] | 9.03 | 6.48 | 0.527 | –
41 | COc1ccc2c(c1)C(=O)N(C[C@@]1(c3cc4c(C(C)O)nccc4o3)NC(=O)NC1=O)C2 (stereo partly drawn) [Compound 2294] | 9.26 | – | – | pIC50 [2, 4]: 6.49; AUC [3, 5]: 0.154 µM·h
42 | COc1ccc2c(c1F)C(=O)N(C[C@@]1(c3cc4nc(C)c(N5CCC5=O)cc4o3)NC(=O)NC1=O)C2 [Compound 1922] | 8.90 | – | – | pIC50 [2, 6]: 6.55; AUC ([3]; plasma 0.5-6 h): 0.088 µM·h
43 | CNS(=O)(=O)c1cc2oc([C@]3(CN4Cc5ccc(OC)cc5C4=O)NC(=O)NC3=O)cc2cc1C [Compound 2480] | – | – | – | pKi ([1]; Ki): 9.37; pIC50 [2, 4]: 5.86; AUC [3, 5]: 0.212 µM·h
44 | COc1ccc2c(c1)C(=O)N(C[C@@]1(c3cc4c(OC)nccc4o3)NC(=O)NC1=O)C2 [Compound 2307] | 9.36 | – | – | pIC50 [2, 4]: 6.22; AUC [3, 5]: 41.4 µM·h
45 | COc1ccc2c(c1)C(=O)N(C[C@@]1(c3cc4cc(C5(C)NC(=O)NC5=O)cnc4o3)NC(=O)NC1=O)C2 (stereo partly drawn) [Compound 500] | 9.16 | – | – | pIC50 [2, 6]: 6.79; AUC ([3]; plasma 0.5-6 h): 1.1 µM·h
46 | COc1ccc2c(c1F)C(=O)N(C[C@@]1(c3cc4nc(C5(C)NC(=O)NC5=O)ccc4o3)NC(=O)NC1=O)C2 (mixture of isomers) [Compound 1901] | 9.31 | – | – | pIC50 [2, 6]: 7.00; AUC ([3]; plasma 0.5-6 h): 1.07 µM·h
47 | CCN1CCN(c2ccc3oc([C@]4(CN5Cc6ccc(OC)c(F)c6C5=O)NC(=O)NC4=O)cc3n2)CC1=O [Compound 1707] | 9.30 | – | – | pIC50 [2, 6]: 6.63; AUC ([3]; plasma 0.5-6 h): 0.65 µM·h

From patent publication US8569336B2, “Compounds for the treatment of inflammatory disorders” (priority 2008, dated 2013)
